Laboratory results from publication PMC7698842, “Lanostane Triterpenoid Metabolites from a Penares sp. Marine Sponge Protect Neuro-2a Cells against Paraquat Neurotoxicity” (Molecules, 2020).

What was measured:
[1] = test system: PQ-treated Neuro-2a cells; assay: Neurite outgrowth estimation in PQ-treated Neuro-2a cells; format: cell-based, mouse; conditions: compound 10 µM 1 h, then PQ 500 µM 24 h
Method: Neurite outgrowth was studied as described by Li et al.. Neuro-2a cells were seeded in 6-well plates (1.6 × 10^5 cells/well) in DMEM medium containing 10% fetal bovine serum (Biolot, St. Peterburg, Russia) and 1% penicillin/streptomycin (Invitrogen, Carlsbad, CA, USA). The next day, this growth media was changed with serum-free DMEM media containing 1% penicillin/streptomycin, and cells were treated with studied compounds at a concentration of 10 µM for 1 h. After that, PQ (500 µM) was added and cells were incubated during 24 h. Cells incubated without PQ and compounds and with PQ alone were used as positive and negative controls, respectively.
For each well, approximately 10 images were acquired randomly by scanning the wells from left to right and top to bottom using the AxioImager A1 microscope (CarlZeiss, Oberkochen, Germany). A total of ten random fields (near 350 cells in each) for each experimental group were scored for neurite outgrowth. The number of neurite-bearing cells and lengths of the individual neurites for each cell were measured using the AxioVision 4.7.1 software (CarlZeiss, Oberkochen, Germany). Length was defined as the straight-line distance from the tip of the neurite to the junction between the cell body and neurite base. In the case of branched neurites, the length of the longest branch was measured from the tip of the neurite to the cell body. In each experimental group, the average length of neurites was calculated, as well as the average number of neurites per one cell.

[2] = DPPH radical scavenging assay (cell-free); conditions: 30 min, MeOH
Method: The 2,2-diphenyl-1-picryl-hydrazyl-hydrate (DPPH) radical scavenging activity was tested as described previously. The compounds were dissolved in MeOH, and the solutions (120 µL) were dispensed into wells of a 96-well microplate. The DPPH (Sigma-Aldrich, Steinheim, Germany) was dissolved in MeOH at a concentration of 7.5 × 10^−3 M and the solution (30 µL) was added to each well. The concentrations of tested compounds in the mixtures were 10 and 100 µM. Ascorbic acid was used as a positive control. The mixtures were shaken and left for 30 min. The absorbance of the resulting solutions was measured at λ = 520 nm with a MultiscanFC plate reader (Thermo Scientific, Waltham, MA, USA). The concentration scavenging 50% of the DPPH radical (EC50) was calculated for each compound.

[3] = test system: PQ-treated Neuro-2a cells; assay: PQ-treated Neuro-2a cell viability (MTT assay); format: cell-based, mouse; conditions: compound 1 and 10 µM, PQ 500 µM, 24 h
Method: (§1) The cells (1 × 10^4 cells/well of a 96-well plate) were incubated with different concentrations of studied compounds during 24 h. After that, cell viability was determined by the MTT (3-(4,5-dimethylthiazol-2-yl)-2,5-diphenyltetrazolium bromide) method according to the manufacturer’s instructions (Sigma-Aldrich, St. Louis, MO, USA). Absorbance of the converted formazan was measured using a Multiskan FC microplate photometer (Thermo Scientific, Waltham, MA, USA) at λ = 570 nm. The results were presented as percent of control data, and concentration of cell viability inhibition on 50% (IC50) was calculated.
The cells (1 × 10^4 cells/well of a 96-well plate) were treated with studied compounds at concentrations of 1 and 10 µM for 1 h and then 500 µM of PQ (Sigma-Aldrich, St. Louis, MO, USA) was added to the neuroblastoma cells. Cells incubated without PQ and compounds and with PQ alone were used as positive and negative controls, respectively. The viability of cells was measured after 24 h using MTT and FDA methods. The results were presented as percent of positive control data.

[4] = test system: mitochondrial membrane potential in PQ-treated Neuro-2a cells; assay: Mitochondrial membrane potential detection (TMRM) in PQ-treated Neuro-2a cells; format: cell-based, mouse; conditions: compound 10 μM, PQ 500 µM 1 h
Method: The cells (1 × 10^4 cells/well of a 96-well plate) were incubated with compound solutions (1 and 10 µM) during 1 h. Then, PQ was added to cell suspension to a resulting concentration of 500 µM for incubation during 1 h. Cells incubated without PQ and compounds and with PQ alone were used as positive and negative controls, respectively. The tetramethylrhodamine methyl (TMRM) (Sigma-Aldrich, St. Louis, MO, USA) solution at 500 nM was added in each well and cells were incubated for 30 min at 37 °C. The intensity of fluorescence was measured with a PHERAstar FS plate reader (BMG Labtech, Ortenberg, Germany) at λex = 540 nm and λem = 590 nm. The data were processed by MARS Data Analysis v. 3.01R2 (BMG Labtech, Ortenberg, Germany). The results were presented as percent of positive control data.

[5] = Cytotoxicity toward Neuro-2a cells (MTT assay); format: cell-based, mouse; conditions: mouse, Neuro-2a neuroblastoma cells, 24 h
Method: The cells of mouse neuroblastoma cell line Neuro-2a (ATCC® CCL-131™; American Type Culture Collection, Manassas, VA, USA) were cultured in Dulbecco’s modified Eagle’s medium (DMEM) containing 10% fetal bovine serum (Biolot, St. Petersburg, Russia) and 1% penicillin/streptomycin (Biolot, St. Petersburg, Russia) at 37 °C in a humidified atmosphere with 5% (v/v) CO2. Initially, cells were incubated in cultural flasks until sub-confluent (~80%). For testing, Neuro-2a cells were seeded in 96- or 6-well plates and experiments were started after 24 h.
as §1

[6] = test system: histamine release induced by anti-IgE; conditions: cited from earlier work
[7] = test system: Hsp70 level in Neuro-2a cells; assay: Hsp70 level analysis by Western blot in Neuro-2a cells; format: cell-based, mouse; conditions: compound 10 µM 1 h, then PQ 500 µM 24 h
Method: The Hsp70 expression was detected by Western blot analysis. Cell suspensions (1.6 × 10^5 cells/well of a 6-well plate) were seeded and treated with studied compounds at a concentration of 10 µM for 1 h. After that, PQ (500 µM) was added and cells were incubated during 24 h. Cells incubated without PQ and compounds and with PQ alone were used as positive and negative controls, respectively. Cells were washed by cold PBS (BioloT, Russia) twice and lysed by radioimmunoprecipitation assay (RIPA) buffer (BioloT, St. Peterburg, Russia). The amount of proteins was measured by the Bradford method and equal samples (25 µg) were prepared using sample buffer. Proteins were separated with sodium dodecyl sulphate (SDS) electrophoresis in 10% polyacrylamide gel. The electrophoretically separated proteins were transferred onto the polyvinylidene difluoride (PVDF) membrane Whatman (Sigma-Aldrich, St. Louis, MO, USA) using a semi-dry transfer apparatus (Helicon, Moscow, Russia). […] The peroxidase reaction was visualized by an enhanced chemiluminescence (ECL) kit according to the instructions of the manufacturer (Sigma-Aldrich, St. Louis, MO, USA) using the VersaDoc Imaging System (Bio-Rad, Hercules, CA, USA).

CC(C)=CCC[C@@H](C)[C@H]1CC[C@@]2(C(=O)O)C3=C(CC[C@]12C)[C@@]1(C)CCC(=O)C(C)(C)[C@@H]1CC3 [Compound 4, penasterone]
increase in the average number of neurites per cell [1]: 27%
increase of neurites-bearing cell amount compared to PQ-treated control [1]: 134%
EC50 [2]: > 100 µM
effect on PQ-treated cell viability (MTT assay) [3]: did not show any effect
increase of intensity of TMRM fluorescence (PQ-induced mitochondrial dysfunction diminished) [4]: 28%
activity at 24 h, 10 µM ([5]; Neuro-2a cell viability, 10 μM, read-out: Cytotoxicity (MTT Assay) % of Control at 10 μM): 95.3 ± 2.7%
IC50 at 24 h ([5]; Neuro-2a cells): > 100 µM
inhibition of histamine release induced by anti-IgE [6]: inhibitors of histamine release
increase of Hsp70 level in PQ-treated cells [7]: 56%
